Measurements from EP2975030B1, “DIHYDROPYRIDAZINE-3,5-DIONE DERIVATIVE” (Chugai Seiyaku Kabushiki Kaisha, priority 2013, dated 2014).

Key:
[1] = tested on: rat small-intestinal brush border membrane vesicles; assay: Inhibitory effect on 33PO4 uptake into rat small-intestinal brush border membrane vesicles (rapid filtration method); format: biochemical, Wistar female rat; conditions: 1 µM test compound, 33PO4 uptake into rat small-intestinal BBMVs, 60 seconds
Procedure, shortened: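 33PO4 uptake into rat small-intestinal brush border membrane vesicles measured by rapid filtration. Reactions were stopped with ice-cold buffer (110 mM NaCl, 1 mM KH2PO4, 10 mM HEPES pH 7.5), filtered and washed. Vesicle-associated radioactivity was counted by liquid scintillation.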

human NaPi-IIb = assay: Inhibitory effect on 33PO4 uptake into human NaPi-IIb-expressing cell; format: cell-based; conditions: CHO cells stably expressing human NaPi-IIb, 1, 3, 10, or 30 µM
Protocol: CHO cells were transfected with human NaPi-IIb expression plasmids, and a stably human NaPi-IIb-expressing cell line was obtained using G418. The human NaPi-IIb-expressing cells were inoculated to a 96-well plate and incubated overnight in a CO2 incubator. The medium was replaced with buffer A (145 mM choline chloride, 3 mM KCl, 1 mM CaCl2, 0.5 mM MgCl2, 5 mM glucose, and 5 mM MES (pH 6.5)) and then replaced with buffer B (145 mM NaCl, 3 mM KCl, 1 mM CaCl2, 0.5 mM MgCl2, 5 mM glucose, and 5 mM MES (pH 6.5)) supplemented with each test compound at a final concentration of 1,3, 10, or 30 µM or buffer A supplemented with DMSO. After a given time, a 1/20 volume of buffer A containing ^33PO4 was added thereto and reacted at room temperature. After washing with ice-cold buffer A, a liquid scintillator was added to each reaction mixture, and the amount of ^33PO4 uptake was measured using TopCount. The rate of inhibition was determined according to the following expression: [formula]

[2] = tested on: adenine-induced renal failure rat; assay: Suppressive effect on rise in serum phosphorus concentration of adenine-induced renal failure rat (0.1% in feed, 3 days); format: in vivo, Wistar male rat; conditions: feed or water, 72 h, rate of suppression of a rise in serum phosphorus concentration, 0.1% of mass concentration in feed
From the text: Test Example 5: Suppressive effect on rise in serum phosphorus concentration of adenine-induced renal failure rat Adenine was forcedly administered orally to each Wistar male rat (7-8 weeks old) to impair renal functions and thereby prepare a hyperphosphatemia model ([…], Nagano N, Burke SK, Fukushima N. Sevelamer hydrochloride prevents ectopic calcification and renal osteodystrophy in chronic renal failure rats. Kidney Int. 2003 Aug; 64 (2): 441-50). Each test compound was mixed at a ratio of 0.1% of mass concentration with feed. The animal was fed with a given amount of the feed for 3 days. A group given feed non-supplemented with a test compound was used as a reference pathological group, and an adenine-unadministered group given feed non-supplemented with a test compound was used as a normal group. 3 days after the start of administration of the test compound, blood was collected from the jugular vein, and serum was collected. Serum phosphorus concentrations were measured by the Fiske-Subbarow method. The rate of suppression of a rise in serum phosphorus concentration was determined according to the following expression: Rate (%) of suppression of a rise in serum phosphorus concentration = (1-[([…]-treatedpathologicalgroup); -(Serumphosphorusconcentrationofthenormalgroup)]/; [(Serumphosphorusconcentrationofthereferencepathologicalgroup)-(Serumphosphorusconcentrationofthenormalgroup)]) × 100 [formula] As a result, each test compound was confirmed to have a suppressive effect on a rise in serum phosphorus concentration. […]

[3] = tested on: adenine-induced renal failure rat; assay: Suppressive effect on rise in serum phosphorus concentration of adenine-induced renal failure rat (0.05% in feed, 8 days); format: in vivo, Wistar male rat; conditions: rate of suppression of a rise in serum phosphorus concentration, 0.05% of mass concentration in feed
Protocol: Test Example 6: Suppressive effect on rise in serum phosphorus concentration of adenine-induced renal failure rat
Each adenine-induced renal failure rat was prepared in the same way as in Test Example 5. Each test compound was mixed at a ratio of 0.05% of mass concentration with feed. The animal was fed with a given amount of the feed for 8 days. A group given feed non-supplemented with a test compound was used as a reference pathological group, and an adenine-unadministered group given feed non-supplemented with a test compound was used as a normal group. 8 days after the start of administration of the test compound, blood was collected from the jugular vein, and serum was collected. Serum phosphorus concentrations were measured by the Fiske-Subbarow method. The rate of suppression of a rise in serum phosphorus concentration was determined according to the following expression: Rate (%) of supression of a rise in serum phosphorus concentration = (1−[(Serumphosphorusconcentrationofthetestcompound−treatedpathologicalgroup)−(Serumphosphorusconcentrationofthenormalgroup)]/[(Serumphosphorusconcentrationofthereferencepathologicalgroup)−(Serumphosphorusconcentrationofthenormalgroup)]) × 100 [formula]
As a result, each test compound was confirmed to have a suppressive effect on a rise in serum phosphorus concentration. […]

For CN(C)S(=O)(=O)N1CCC(c2cc(C(F)(F)F)ccc2NC(=O)C2=C(O)[C@@]3(C)CCCN3N(Cc3cccc(F)c3F)C2=O)CC1 [Example 110], the “Rate of uptake inhibition (%) (1 µM)” value [1] was 57% and the IC50 (human NaPi-IIb) was 19.8 µM.

CN1[C@@H](C(C)(C)C)C(O)=C(C(=O)Nc2ccc(Cl)cc2-c2cc(C(F)(F)F)ncn2)C(=O)N1Cc1ccc(OCCN2CCOCC2)c(F)c1F [Example 265, (3S)-3-tert-Butyl-N-[4-chloro-2-[6-(trifluoromethyl)pyrimidin-4-yl]phenyl]-1-[[2,3-difluoro-4-(2-morpholin-4-ylethoxy)phenyl]methyl]-4-hydroxy-2-methyl-6-oxo-3H-pyridazine-5-carboxamide] was tested, and the “Rate of uptake inhibition (%) (1 µM)” value [1] was 52% and the inhibition in vivo at 0.1 %, 0.1 % in feed [2] was 11%.

With CN1[C@@H](C(C)(C)C)C(O)=C(C(=O)Nc2ccc(Cl)cc2-c2ccc(C(F)(F)F)nc2)C(=O)N1Cc1ccc(OCCN2CCOCC2)c(F)c1F [Example 267, (3S)-3-tert-Butyl-N-[4-chloro-2-[6-(trifluoromethyl)pyridin-3-yl]phenyl]-1-[[2,3-difluoro-4-(2-morpholin-4-ylethoxy)phenyl]methyl]-4-hydroxy-2-methyl-6-oxo-3H-pyridazine-5-carboxamide] the “Rate of uptake inhibition (%) (1 µM)” value [1] was 71% and the inhibition in vivo at 0.1 %, 0.1 % in feed [2] was 18%.

In the case of CSc1ccc(-c2cc(Cl)ccc2NC(=O)C2=C(O)[C@H](C(C)(C)C)N(C)N(Cc3ccc(OCCN4CCOCC4)c(F)c3F)C2=O)cn1 [Example 269, (3S)-3-tert-Butyl-N-[4-chloro-2-(6-methylsulfanylpyridin-3-yl)phenyl]-1-[[2,3-difluoro-4-(2-morpholin-4-ylethoxy)phenyl]methyl]-4-hydroxy-2-methyl-6-oxo-3H-pyridazine-5-carboxamide], the “Rate of uptake inhibition (%) (1 µM)” value [1] is reported as 80% and the inhibition in vivo at 0.1 %, 0.1 % in feed [2] is reported as 15%.

In the case of Cc1c(C#N)ncnc1-c1cc(C(F)(F)F)ccc1NC(=O)C1=C(O)[C@H](C(C)(C)C)N(C)N(Cc2ccc(OCCN3CCOCC3)c(F)c2F)C1=O [Example 270, (3S)-3-tert-Butyl-N-[2-(6-cyano-5-methylpyrimidin-4-yl)-4-(trifluoromethyl)phenyl]-1-[[2,3-difluoro-4-(2-morpholin-4-ylethoxy)phenyl]methyl]-4-hydroxy-2-methyl-6-oxo-3H-pyridazine-5-carboxamide], the “Rate of uptake inhibition (%) (1 µM)” value [1] is reported as 75% and the inhibition in vivo at 0.1 %, 0.1 % in feed [2] is reported as 20%.

For CN1N(Cc2ccc(OCCN3CCOCC3)c(F)c2F)C(=O)C(C(=O)Nc2ccc(C(F)(F)F)cc2-c2cc(C(F)(F)F)ncn2)=C(O)C12CCC2 [Example 317, 6-[[2,3-Difluoro-4-(2-morpholin-4-ylethoxy)phenyl]methyl]-9-hydroxy-5-methyl-7-oxo-N-[4-(trifluoromethyl)-2-[6-(trifluoromethyl)pyrimidin-4-yl]phenyl]-5,6-diazaspiro[3.5]non-8-ene-8-carboxamide], the “Rate of uptake inhibition (%) (1 µM)” value [1] was 57% and the inhibition in vivo at 0.1 %, 0.1 % in feed [2] was 22%.

CN1N(Cc2ccc(OCCN3CCOCC3)c(F)c2F)C(=O)C(C(=O)Nc2ccc(C(F)(F)F)cc2-c2cc(C(F)(F)F)ncn2)=C(O)C12CCCC2 [Example 318, 7-[[2,3-Difluoro-4-(2-morpholin-4-ylethoxy)phenyl]methyl]-10-hydroxy-6-methyl-8-oxo-N-[4-(trifluoromethyl)-2-[6-(trifluoromethyl)pyrimidin-4-yl]phenyl]-6,7-diazaspiro[4.5]dec-9-ene-9-carboxamide] was tested, and the “Rate of uptake inhibition (%) (1 µM)” value [1] was 43% and the inhibition in vivo at 0.1 %, 0.1 % in feed [2] was 32%.

For CN1N(Cc2ccc(OCCCCC(=O)O)c(F)c2F)C(=O)C(C(=O)Nc2ccc(C(F)(F)F)cc2-c2cc(C(F)(F)F)ncn2)=C(O)C12CCCC2 [Example 333, 5-[2,3-Difluoro-4-[[10-hydroxy-6-methyl-8-oxo-9-[[4-(trifluoromethyl)-2-[6-(trifluoromethyl)pyrimidin-4-yl]phenyl]carbamoyl]-6,7-diazaspiro[4.5]dec-9-en-7-yl]methyl]phenoxy]pentanoic acid], the “Rate of uptake inhibition (%) (1 µM)” value [1] was 29% and the inhibition in vivo at 0.1 %, 0.1 % in feed [2] was 8%.

For COC[C@@H]1CCCN1CCOc1ccc(CN2C(=O)C(C(=O)Nc3ccc(C(F)(F)F)cc3-c3cc(C(F)(F)F)ncn3)=C(O)C3(CCC3)N2C)c(F)c1F [Example 345, 6-[[2,3-Difluoro-4-[2-[(2S)-2-(methoxymethyl)pyrrolidin-1-yl]ethoxy]phenyl]methyl]-9-hydroxy-5-methyl-7-oxo-N-[4-(trifluoromethyl)-2-[6-(trifluoromethyl)pyrimidin-4-yl]phenyl]-5,6-diazaspiro[3.5]non-8-ene-8-carboxamide], the “Rate of uptake inhibition (%) (1 µM)” value [1] was 73% and the inhibition in vivo at 0.1 %, 0.1 % in feed [2] was 19%.

In the case of CN(C)CC(C)(C)COc1ccc(CN2C(=O)C(C(=O)Nc3ccc(C(F)(F)F)cc3-c3cc(C(F)(F)F)ncn3)=C(O)C3(CCCC3)N2C)c(F)c1F [Example 414, 7-(4-(3-(Dimethylamino)-2,2-dimethylpropoxy)-2,3-difluorobenzyl)-10-hydroxy-6-methyl-8-oxo-N-(4-(trifluoromethyl)-2-(6-(trifluoromethyl)pyrimidin-4-yl)phenyl)-6,7-diazaspiro[4.5]dec-9-ene-9-carboxamide], the “Rate of uptake inhibition (%) (1 µM)” value [1] is reported as 27% and the “Rate of inhibition (%)” value [3] is reported as 37%.

CN(C[C@H](O)[C@@H](O)[C@H](O)[C@H](O)CO)C(=O)CCCOc1ccc(CN2C(=O)C(C(=O)Nc3ccc(C(F)(F)F)cc3-c3cc(C(F)(F)F)ncn3)=C(O)C3(CCCC3)N2C)c(F)c1F [Example 418, 7-[[2,3-Difluoro-4-[4-[methyl-[(2S,3R,4R,5R)-2,3,4,5,6-pentahydroxyhexyl]amino]-4-oxobutoxy]phenyl]methyl]-10-hydroxy-6-methyl-8-oxo-N-[4-(trifluoromethyl)-2-[6-(trifluoromethyl)pyrimidin-4-yl]phenyl]-6,7-diazaspiro[4.5]dec-9-ene-9-carboxamide] was tested, and the “Rate of uptake inhibition (%) (1 µM)” value [1] was 29% and the “Rate of inhibition (%)” value [3] was 38%.

In the case of CN1N(Cc2ccc(OCCNCCS(=O)(=O)O)c(F)c2F)C(=O)C(C(=O)Nc2ccc(C(F)(F)F)cc2-c2cc(C(F)(F)F)ncn2)=C(O)C12CCCC2 [Example 436, 2-[2-[2,3-Difluoro-4-[[10-hydroxy-6-methyl-8-oxo-9-[[4-(trifluoromethyl)-2-[6-(trifluoromethyl)pyrimidin-4-yl]phenyl]carbamoyl]-6,7-diazaspiro[4.5]dec-9-en-7-vl]methyl]phenoxy]ethylamino]ethanesulfonic acid], the “Rate of uptake inhibition (%) (1 µM)” value ([1]; 1 µM) is reported as 12% and the IC50 (human NaPi-IIb) is reported as 14 µM.
